Laboratory results taken from patent EP1674110A1, “Inhibition of bradykinin release” (priority 1999, dated 2000).

Tests used:
BAEC monolayers = assay: EC intracellular free Ca2+ (fluo-3) after CD18 cross-linking of PMNs; type: cell-based, bovine; conditions: endothelial cells pre-treated with BAPTA AM; concentration not given
Procedure: The Ca^2+ sensitive fluorescent probe fluo-3/AM (Molecular Probes Europe BV, Leiden, The Netherlands) is used for determination of changes in EC intracellular free Ca^2+. Confluent BAEC monolayers on filters are incubated for 30 min at 37°C with fluo-3/AM (3µM in HBSS containing 2% FCS and 10 mM HEPES) added to both the apical and basolateral surface. The monolayers are washed three times and incubated with fresh HBSS in the dark for 20 min at room temperature to allow complete hydrolysis of the dye ester. Anti-CD18 or anti-L-selectin mAb treated PMNs are added to ECs and receptor cross-linking is induced with secondary mAb as described above. In separate experiments, PMN secretion containing medium (see above) is used to stimulate ECs in the absence of PMNs. Changes in EC [Ca^2+]i in response to these stimuli are measured through continuous registration of fluorescence intensity with a laser-scanning confocal imaging system (Insight Plus; Meridian Instruments Inc., Okemon, Michigan).
Monolayers of endothelial cells are labelled with the Ca^2+-sensitive fluorophore fluo-3, and stimulus-induced changes in EC [Ca^2+]i monitored by confocal laser scanning microscopy. Adding anti-CD18 treated PMNs to the EC monolayer caused no change in EC [Ca^2+]. […]

[1] = tested on: endothelial cells (HUVEC or BAEC); assay: Transendothelial electrical resistance (TEER) after CD18 cross-linking of PMNs; type: cell-based; conditions: endothelial cells pre-treated with BAPTA AM; concentration not given
Procedure: Human umbilical vein endothelial cells (HUVEC) and bovine aorta endothelial cells (BAEC) are isolated and cultured as previously described (Gautam et al. 1998, Brit. J. Pharm. 125:1109-1114). HUVEC or BAEC in the first to fifth passages are detached by brief (2 min) trypsin-EDTA treatment (0.25% trypsin/0.01 % EDTA) and replated onto either 0.2 µm pore size Anopore inorganic membrane or 3.0 µm pore size polycarbonate filters (Tissue Culture inserts, 10 mm; NUNC, Roskilde, Denmark). In order to promote cellular differentiation and enhance attachment of endothelial cells (ECs), the filters are pretreated with 50 µl Biomatrix I (167 µg/ml) and air-dried. […] The EC are grown to confluent monolayers, as assessed by daily microscopic observation and measurement of the electrical resistance across the monolayer (Gautam et al. 1998, Brit. J. Pharm. 125:1109-1114).
Two different approaches are used for assessment of stimulation-induced changes in EC permeability. […] Electrical resistance across the EC monolayer is measured at 37°C with electrodes in each compartment exactly positioned in relation to each other and to the monolayer. The electrical resistance of individual EC monolayers is obtained by subtracting the resistance of the corresponding naked filter coated with Biomatrix as measured prior to seeding of the endothelial cells. […]

[2] = target: HBP (heparin-binding protein, CAP37); conditions: lipid A component of LPS and endotoxin binding to HBP; read-out: Kass (converted); cited from earlier work

For `CC(=O)OCOC(=O)CN(CC(=O)OCOC(C)=O)c1ccccc1OCCOc1ccccc1N(CC(=O)OCOC(C)=O)CC(=O)OCOC(C)=O` [BAPTA AM], the “rise in EC free intracellular Ca^2+ in response to CD18 cross-linking” value (BAEC monolayers) was “completely inhibited” and the “change in TEER in response to CD18 cross-linking” value [1] was “completely inhibited”.

For lipid A, the Kd [2] is given as 1.25 nM.
